Test system: 439559-082-T-J2-PDC spheroids viability
Experiment: Anticancer human tumor 439559-082-T-J2-PDC patient-derived colon adenocarcinoma cell line growth inhibition [GQUAD]
Settings: for IC50: curve of first compound; for viability, T/C: stronger effect = lower value
Method in brief: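 Tumor cells were grown as complex spheroids with HUVEC endothelial cells and mesenchymal stem cells as stroma. G-quadruplex stabilizers were combined with targeted agents over half-log dilutions from near the clinical Cmax, or from 10 microM.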

[1] = second compound 0.0316 µM, first compound 0.0316 µM
[2] = second compound 0.0316 µM, first compound 0.1 µM
[3] = second compound 0.0316 µM, first compound 0.316 µM
[4] = second compound 0.0316 µM, first compound 1 µM
[5] = second compound 0.0316 µM, first compound 3.16 µM
[6] = second compound 0.0316 µM, first compound 10 µM
[7] = second compound 0.1 µM, first compound 0.0316 µM
[8] = second compound 0.1 µM, first compound 0.1 µM
[9] = second compound 0.1 µM, first compound 0.316 µM
[10] = second compound 0.1 µM, first compound 1 µM
[11] = second compound 0.1 µM, first compound 3.16 µM
[12] = second compound 0.1 µM, first compound 10 µM
[13] = second compound 0.316 µM, first compound 0.0316 µM
[14] = second compound 0.316 µM, first compound 0.1 µM
[15] = second compound 0.316 µM, first compound 0.316 µM
[16] = second compound 0.316 µM, first compound 1 µM
[17] = second compound 0.316 µM, first compound 3.16 µM
[18] = second compound 0.316 µM, first compound 10 µM
[19] = second compound 1 µM, first compound 0.0316 µM
[20] = second compound 1 µM, first compound 0.1 µM
[21] = second compound 1 µM, first compound 0.316 µM
[22] = second compound 1 µM, first compound 1 µM
[23] = second compound 1 µM, first compound 3.16 µM
[24] = second compound 1 µM, first compound 10 µM
[25] = second compound 3.16 µM, first compound 0.0316 µM
[26] = second compound 3.16 µM, first compound 0.1 µM
[27] = second compound 3.16 µM, first compound 0.316 µM
[28] = second compound 3.16 µM, first compound 1 µM
[29] = second compound 3.16 µM, first compound 3.16 µM
[30] = second compound 3.16 µM, first compound 10 µM
[31] = second compound 10 µM, first compound 0.0316 µM
[32] = second compound 10 µM, first compound 0.1 µM
[33] = second compound 10 µM, first compound 0.316 µM
[34] = second compound 10 µM, first compound 1 µM
[35] = second compound 10 µM, first compound 3.16 µM
[36] = second compound 10 µM, first compound 10 µM
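Note: spheroids exposed to the agents for 7 days before readout.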
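Throughout, for viability, T/C: percent of luminescence signal in DMSO vehicle wells taken as 100% viability.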

CC1COCCN1c1cc(-c2ccnn2C)c2ccnc(-c3ccn[nH]3)c2n1 (stereo unspecified) + CN(C)c1ccc(Nc2c3ccc(NC(=O)CCN4CCCC4)cc3nc3cc(NC(=O)CCN4CCCC4)ccc23)cc1 showed an IC50 (second compound 0.0316 µM) of 237 nM, an IC50 (second compound 0.1 µM) of 261 nM and an IC50 (second compound 0.316 µM) of 224 nM. It also gave an IC50 (second compound 1 µM) of 248 nM, an IC50 (second compound 3.16 µM) of 221 nM and an IC50 (second compound 10 µM) of 229 nM. For the same compound, the viability, T/C [1] was 97.9%, the viability, T/C [2] was 72.7% and the viability, T/C [3] was 41.9%. The viability, T/C [4] was 34.6%, the viability, T/C [5] was 35.3% and the viability, T/C [6] was 28.8%. The viability, T/C [7] was 104%, the viability, T/C [8] was 74.4% and the viability, T/C [9] was 43.1%. It also gave a viability, T/C [10] of 32.9%, a viability, T/C [11] of 30.9% and a viability, T/C [12] of 21.5%. For the same compound, the viability, T/C [13] was 97.1%, the viability, T/C [14] was 80.7% and the viability, T/C [15] was 36.7%. The viability, T/C [16] was 30.3%, the viability, T/C [17] was 30.2% and the viability, T/C [18] was 24.2%. The viability, T/C [19] was 89.6%, the viability, T/C [20] was 89.1% and the viability, T/C [21] was 39.5%. For the same compound, the viability, T/C [22] was 34.3%, the viability, T/C [23] was 32.6% and the viability, T/C [24] was 26.4%. It also gave a viability, T/C [25] of 90%, a viability, T/C [26] of 75.1% and a viability, T/C [27] of 38.9%. It also gave a viability, T/C [28] of 28.6%, a viability, T/C [29] of 30.1% and a viability, T/C [30] of 28.8%. It also gave a viability, T/C [31] of 92.9%, a viability, T/C [32] of 75.8% and a viability, T/C [33] of 40.4%. The viability, T/C [34] was 27.8%, the viability, T/C [35] was 37.1% and the viability, T/C [36] was 25.1%.

Compound CC1COCCN1c1cc(C2(O)CC3CCC(C2)O3)c2cnn(-c3ccn[nH]3)c2n1 (stereo unspecified) + CN(C)c1ccc(Nc2c3ccc(NC(=O)CCN4CCCC4)cc3nc3cc(NC(=O)CCN4CCCC4)ccc23)cc1 has an IC50 (second compound 0.0316 µM) of 979 nM, an IC50 (second compound 0.1 µM) of 1200 nM and an IC50 (second compound 0.316 µM) of 959 nM. The IC50 (second compound 1 µM) was 1160 nM, the IC50 (second compound 3.16 µM) was 1080 nM and the IC50 (second compound 10 µM) was 999 nM. The viability, T/C [1] was 96.5%, the viability, T/C [2] was 72.1% and the viability, T/C [3] was 68.3%. For the same compound, the viability, T/C [4] was 49.8%, the viability, T/C [5] was 35.8% and the viability, T/C [6] was 25.6%. It also gave a viability, T/C [7] of 103%, a viability, T/C [8] of 78.2% and a viability, T/C [9] of 74.1%. The viability, T/C [10] was 52.6%, the viability, T/C [11] was 33.9% and the viability, T/C [12] was 30.4%. For the same compound, the viability, T/C [13] was 94.8%, the viability, T/C [14] was 82.3% and the viability, T/C [15] was 64.4%. The viability, T/C [16] was 50.3%, the viability, T/C [17] was 37% and the viability, T/C [18] was 30.3%. For the same compound, the viability, T/C [19] was 80.6%, the viability, T/C [20] was 86.2% and the viability, T/C [21] was 75.7%. It also gave a viability, T/C [22] of 52%, a viability, T/C [23] of 36.6% and a viability, T/C [24] of 32.4%. For the same compound, the viability, T/C [25] was 85.6%, the viability, T/C [26] was 87.5% and the viability, T/C [27] was 75.5%. It also gave a viability, T/C [28] of 49%, a viability, T/C [29] of 39.9% and a viability, T/C [30] of 28.9%. The viability, T/C [31] was 94.9%, the viability, T/C [32] was 76.9% and the viability, T/C [33] was 79.1%. For the same compound, the viability, T/C [34] was 46%, the viability, T/C [35] was 35% and the viability, T/C [36] was 25.4%.

With CC1COCCN1c1cc(C2(S(C)(=N)=O)CC2)nc(-c2ccnc3[nH]ccc23)n1 (stereo unspecified) + CN(C)c1ccc(Nc2c3ccc(NC(=O)CCN4CCCC4)cc3nc3cc(NC(=O)CCN4CCCC4)ccc23)cc1 the IC50 (second compound 0.0316 µM) was over 10000 nM, the IC50 (second compound 0.1 µM) was over 10000 nM and the IC50 (second compound 0.316 µM) was over 10000 nM. For the same compound, the IC50 (second compound 1 µM) was over 10000 nM, the IC50 (second compound 3.16 µM) was over 10000 nM and the IC50 (second compound 10 µM) was over 10000 nM. For the same compound, the viability, T/C [1] was 93.8%, the viability, T/C [2] was 90% and the viability, T/C [3] was 92.4%. For the same compound, the viability, T/C [4] was 86.8%, the viability, T/C [5] was 89.7% and the viability, T/C [6] was 65%. It also gave a viability, T/C [7] of 97.1%, a viability, T/C [8] of 97.4% and a viability, T/C [9] of 89.9%. It also gave a viability, T/C [10] of 94.7%, a viability, T/C [11] of 79.9% and a viability, T/C [12] of 64.4%. For the same compound, the viability, T/C [13] was 93.3%, the viability, T/C [14] was 107% and the viability, T/C [15] was 97.8%. It also gave a viability, T/C [16] of 100%, a viability, T/C [17] of 93.4% and a viability, T/C [18] of 64.3%. The viability, T/C [19] was 100%, the viability, T/C [20] was 107% and the viability, T/C [21] was 102%. It also gave a viability, T/C [22] of 86.8%, a viability, T/C [23] of 84.5% and a viability, T/C [24] of 67.6%. For the same compound, the viability, T/C [25] was 105%, the viability, T/C [26] was 98.9% and the viability, T/C [27] was 104%. For the same compound, the viability, T/C [28] was 93.5%, the viability, T/C [29] was 88.6% and the viability, T/C [30] was 62.4%. For the same compound, the viability, T/C [31] was 97.3%, the viability, T/C [32] was 98.6% and the viability, T/C [33] was 115%. For the same compound, the viability, T/C [34] was 106%, the viability, T/C [35] was 81.8% and the viability, T/C [36] was 63.7%.
